Legend:
[1] = system: barnyardgrass; test: Test A pre-/postemergence herbicide test; type: in vivo, Echinochloa crus-galli
Outline: (§1)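 Visual injury rating on a 0–100 scale (0 no effect, 100 complete control) versus untreated controls, about ten days after treatment in greenhouse. Pre: directed soil spray onto seeded sandy loam. Post: spray to runoff on plants 2–10 cm tall at one- to two-leaf stage.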

[2] = system: large crabgrass; test: Test A pre-/postemergence herbicide test; type: in vivo, Digitaria sanguinalis
Outline: as §1

[3] = system: giant foxtail; test: Test A pre-/postemergence herbicide test; type: in vivo, Setaria faberi
Outline: as §1

[4] = system: morningglory; test: Test A pre-/postemergence herbicide test; type: in vivo, Ipomoea spp.
Outline: as §1

[5] = system: redroot pigweed; test: Test A pre-/postemergence herbicide test; type: in vivo, Amaranthus retroflexus
Outline: as §1

[6] = system: velvetleaf; test: Test A pre-/postemergence herbicide test; type: in vivo, Abutilon theophrasti
Outline: as §1

[7] = system: barnyardgrass; test: Test B pre-/postemergence herbicide test; type: in vivo, Echinochloa crus-galli; details: for Barnyardgrass plant response rating: postemergence, visual rating, scale 0 (no effect) to 100 (complete control)
Outline: (§2)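 Herbicidal effect was judged by eye on a 0–100 scale after plants stood 13 to 15 days in the greenhouse following pre- or postemergence treatment with surfactant-containing formulations.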

[8] = system: Surinam grass; test: Test B pre-/postemergence herbicide test; type: in vivo, Urochloa decumbens; details: for Surinam Grass plant response rating: postemergence, visual rating, scale 0 (no effect) to 100 (complete control)
Outline: (§3)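 Seeds were planted and treated preemergence with compounds formulated in a non-phytotoxic solvent mixture containing surfactant, while plants at the 1- to 4-leaf stage (2 to 18 cm) received postemergence sprays. Flooded paddy plants were grown to the 2-leaf stage. After 13 to 15 days in a greenhouse, injury was visually rated 0–100 against untreated controls.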

[9] = system: cocklebur; test: Test B pre-/postemergence herbicide test; type: in vivo, Xanthium strumarium; details: for Cocklebur plant response rating: postemergence, visual rating, scale 0 (no effect) to 100 (complete control)
Outline: as §2

[10] = system: corn; test: Test B pre-/postemergence herbicide test; type: in vivo, Zea mays; details: for Corn plant response rating: postemergence, visual rating, scale 0 (no effect) to 100 (complete control)
Outline: as §3

[11] = system: large crabgrass; test: Test B pre-/postemergence herbicide test; type: in vivo, Digitaria sanguinalis; details: for Crabgrass, Large plant response rating: postemergence, visual rating, scale 0 (no effect) to 100 (complete control)
Outline: as §3

[12] = system: giant foxtail; test: Test B pre-/postemergence herbicide test; type: in vivo, Setaria faberi; details: for Foxtail, Giant plant response rating: postemergence, visual rating, scale 0 (no effect) to 100 (complete control)
Outline: as §3

[13] = system: lambsquarters; test: Test B pre-/postemergence herbicide test; type: in vivo, Chenopodium album; details: for Lambsquarters plant response rating: postemergence, visual rating, scale 0 (no effect) to 100 (complete control)
Outline: as §3

[14] = system: morningglory; test: Test B pre-/postemergence herbicide test; type: in vivo, Ipomoea coccinea; details: for Morningglory plant response rating: postemergence, visual rating, scale 0 (no effect) to 100 (complete control)
Outline: as §2

[15] = system: pigweed; test: Test B pre-/postemergence herbicide test; type: in vivo, Amaranthus retroflexus; details: for Pigweed plant response rating: postemergence, visual rating, scale 0 (no effect) to 100 (complete control)
Outline: as §3

[16] = system: rice; test: Test B pre-/postemergence herbicide test; type: in vivo, Oryza sativa; details: preemergence
Outline: as §3

[17] = system: velvetleaf; test: Test B pre-/postemergence herbicide test; type: in vivo, Abutilon theophrasti; details: for Velvetleaf plant response rating: postemergence, visual rating, scale 0 (no effect) to 100 (complete control)
Outline: as §3

[18] = system: blackgrass; test: Test B postemergence herbicide test; type: in vivo, Alopecurus myosuroides; details: postemergence, visual rating, scale 0 (no effect) to 100 (complete control)
Outline: (§4)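 Treated at 2-leaf (paddy) or 1–4-leaf, 2–18 cm (postemergence); greenhouse 13–15 d; visual score vs control, 0 none to 100 complete control; dash = not tested.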

[19] = system: wheat; test: Test B postemergence herbicide test; type: in vivo, Triticum aestivum; parameters: key to Wheat plant response rating: 0 = no effect, 100 = complete control; details: postemergence, visual rating, scale 0 (no effect) to 100 (complete control)
Outline: (§5)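 Plants grow to 1- to 4-leaf stage (2–18 cm) for postemergence spraying, or to 2-leaf stage for the paddy test. Formulated compound is applied. Greenhouse holding lasts 13–15 days. Response is scored visually relative to controls, 0 no effect to 100 complete control; a dash means no result.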

[20] = system: wild oat; test: Test B postemergence herbicide test; type: in vivo, Avena fatua; details: postemergence, visual rating, scale 0 (no effect) to 100 (complete control)
Outline: as §5

[21] = system: rice; test: Test B flooded paddy test; type: in vivo, Oryza sativa; details: 1000 g ai/ha, visual rating, scale 0 to 100 (0 no effect, 100 complete control), 13 to 15 days
Outline: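 Visual ratings, 0 (no effect) to 100 (complete control), made versus controls after 13–15 d greenhouse. Paddy plants treated at 2-leaf stage; postemergence plants at 1- to 4-leaf stage, 2–18 cm tall.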

[22] = system: small flower umbrella sedge; test: Test B flooded paddy test; type: in vivo, Cyperus difformis; details: 1000 g ai/ha, visual rating, scale 0 to 100 (0 no effect, 100 complete control), 13 to 15 days
Outline: as §4

[23] = system: ducksalad; test: Test B flooded paddy test; type: in vivo, Heteranthera limosa; details: 1000 g ai/ha, visual rating, scale 0 to 100 (0 no effect, 100 complete control), 13 to 15 days
Outline: as §4

[24] = system: barnyardgrass; test: Test B flooded paddy test; type: in vivo, Echinochloa crus-galli; details: 1000 g ai/ha, visual rating, scale 0 to 100 (0 no effect, 100 complete control), 13 to 15 days
Outline: as §4

[25] = Postemergence, 500 g ai/ha, 0 to 100 scale, 0 no effect, 100 complete control
[26] = Postemergence, 2000 g ai/ha, 0 to 100 scale, 0 no effect, 100 complete control
[27] = Preemergence, 2000 g ai/ha, visual rating, 0 to 100 scale (0 no effect, 100 complete control)
[28] = preemergence, 500 g ai/ha, visual injury, 0 to 100 scale (0 no effect, 100 complete control)
[29] = 125 g ai/ha, 0 = no effect, 100 = complete control, preemergence
[30] = 500 g ai/ha, visual rating 0-100, 0 no effect, 100 complete control, preemergence

Cc1nn(C(C)(C)C)cc1C(=O)Nc1cccc(OC(C)C)c1 [Compound 189] was tested, and the “Barnyardgrass plant response rating” value [1, 25] was 0, the “Plant response rating, Barnyardgrass” value [1, 26] was 10 and the “Barnyardgrass plant response rating” value [1, 27] was 65. For the same compound, the “Barnyardgrass plant response rating” value [1, 28] was 35, the “Crabgrass, Large plant response rating” value [2, 25] was 10 and the “Plant response rating, Crabgrass, Large” value [2, 26] was 10. The “Crabgrass, Large plant response rating” value [2, 27] was 75, the “Crabgrass, Large plant response rating” value [2, 28] was 55 and the “Foxtail, Giant plant response rating” value [3, 25] was 0. For the same compound, the “Plant response rating, Foxtail, Giant” value [3, 26] was 0, the “Foxtail, Giant plant response rating” value [3, 27] was 20 and the “Foxtail, Giant plant response rating” value [3, 28] was 5. The “Morningglory plant response rating” value [4, 25] was 10, the “Plant response rating, Morningglory” value [4, 26] was 10 and the “Morningglory plant response rating” value [4, 27] was 30. For the same compound, the “Morningglory plant response rating” value [4, 28] was 15, the “Pigweed plant response rating” value [5, 25] was 30 and the “Plant response rating, Pigweed” value [5, 26] was 45. The “Pigweed plant response rating” value [5, 27] was 40, the “Pigweed plant response rating” value [5, 28] was 25 and the “Velvetleaf plant response rating” value [6, 25] was 5. For the same compound, the “Plant response rating, Velvetleaf” value [6, 26] was 5, the “Velvetleaf plant response rating” value [6, 27] was 25 and the “Velvetleaf plant response rating” value [6, 28] was 10. For the same compound, the “Barnyardgrass plant response rating (0 to 100 scale)” value [7, 29] was 0, the “Plant response rating, Barnyardgrass” value [7, 30] was 30 and the “Barnyardgrass plant response rating” value ([7]; 125 g ai/ha) was 0. For the same compound, the “Barnyardgrass plant response rating” value ([7]; 500 g ai/ha) was 10, the “Surinam Grass plant response rating (0 to 100 scale)” value [8, 29] was 0 and the “Plant response rating, Surinam Grass” value [8, 30] was 20. The “Surinam Grass plant response rating” value ([8]; 125 g ai/ha) was 10, the “Surinam Grass plant response rating” value ([8]; 500 g ai/ha) was 20 and the “Cocklebur plant response rating (0 to 100 scale)” value [9, 29] was 0. For the same compound, the “Plant response rating, Cocklebur” value [9, 30] was 0, the “Cocklebur plant response rating” value ([9]; 125 g ai/ha) was 0 and the “Cocklebur plant response rating” value ([9]; 500 g ai/ha) was 10. The “Corn plant response rating (0 to 100 scale)” value [10, 29] was 0, the “Plant response rating, Corn” value [10, 30] was 0 and the “Corn plant response rating” value ([10]; 125 g ai/ha) was 10. The “Corn plant response rating” value ([10]; 500 g ai/ha) was 10, the “Crabgrass, Large plant response rating (0 to 100 scale)” value [11, 29] was 30 and the “Plant response rating, Crabgrass, Large” value [11, 30] was 60. For the same compound, the “Crabgrass, Large plant response rating” value ([11]; 125 g ai/ha) was 10, the “Crabgrass, Large plant response rating” value ([11]; 500 g ai/ha) was 20 and the “Foxtail, Giant plant response rating (0 to 100 scale)” value [12, 29] was 0. The “Plant response rating, Foxtail, Giant” value [12, 30] was 10, the “Foxtail, Giant plant response rating” value ([12]; 125 g ai/ha) was 0 and the “Foxtail, Giant plant response rating” value ([12]; 500 g ai/ha) was 10. The “Lambsquarters plant response rating (0 to 100 scale)” value [13, 29] was 0, the “Plant response rating, Lambsquarters” value [13, 30] was 30 and the “Lambsquarters plant response rating” value ([13]; 125 g ai/ha) was 50. For the same compound, the “Lambsquarters plant response rating” value ([13]; 500 g ai/ha) was 50, the “Plant response rating, Morningglory” value [14, 30] was 20 and the “Morningglory plant response rating” value ([14]; 125 g ai/ha) was 80. The “Morningglory plant response rating” value ([14]; 500 g ai/ha) was 90, the “Pigweed plant response rating (0 to 100 scale)” value [15, 29] was 90 and the “Plant response rating, Pigweed” value [15, 30] was 100. For the same compound, the “Pigweed plant response rating” value ([15]; 125 g ai/ha) was 30, the “Pigweed plant response rating” value ([15]; 500 g ai/ha) was 60 and the “Rice plant response rating (0 to 100 scale)” value ([16]; 125 g ai/ha, 0 = no effect, 100 = complete control) was 0. The “Plant response rating, Rice” value ([16]; 500 g ai/ha, visual rating 0-100, 0 no effect, 100 complete control) was 50, the “Velvetleaf plant response rating (0 to 100 scale)” value [17, 29] was 0 and the “Plant response rating, Velvetleaf” value [17, 30] was 20. The “Velvetleaf plant response rating” value ([17]; 125 g ai/ha) was 20, the “Velvetleaf plant response rating” value ([17]; 500 g ai/ha) was 20 and the “Blackgrass plant response rating” value ([18]; 125 g ai/ha) was 0. For the same compound, the “Blackgrass plant response rating” value ([18]; 500 g ai/ha) was 0, the “Wheat plant response rating” value ([19]; 125 g ai/ha) was 0 and the “Wheat plant response rating” value ([19]; 500 g ai/ha) was 0. For the same compound, the “Oat, Wild plant response rating” value ([20]; 125 g ai/ha) was 10, the “Oat, Wild plant response rating” value ([20]; 500 g ai/ha) was 10 and the “Rice plant response rating” value [21] was 40. The “Sedge, Umbrella plant response rating” value [22] was 70, the “Ducksalad plant response rating” value [23] was 70 and the “Barnyardgrass plant response rating” value [24] was 60.

Source: patent publication US20060069132A1, “Azolecarboxamide herbicides” (priority 2004, published 2006)
